# Reference: the kinase profiling compilation of Christmann-Franck et al. (2016)
# Columns and labels:
# Assay in all cases: KINOMEscan competition binding
# Conditions in all cases: compound 10.0 µM
# [1] = biological target: AKT3 (human) (UniProt Q9Y243)
# [2] = biological target: ANKK1 (human) (UniProt Q8NFD2)
# [3] = biological target: AURKC (human) (UniProt Q9UQB9)
# [4] = biological target: CDK14 (human) (UniProt O94921)
# [5] = biological target: CSNK1E (human) (UniProt P49674)
# [6] = biological target: CSNK2A2 (human) (UniProt P19784)
# [7] = biological target: DCLK3 (human) (UniProt Q9C098)
# [8] = biological target: DDR1 (human) (UniProt Q08345)
# [9] = biological target: DDR2 (human) (UniProt Q16832)
# [10] = biological target: DYRK1B (human) (UniProt Q9Y463)
# [11] = biological target: EPHA2 (human) (UniProt P29317)
# [12] = biological target: EPHA6 (human) (UniProt Q9UF33)
# Sequence of EPHA6 (human) (Q9UF33 whole entry, looked up): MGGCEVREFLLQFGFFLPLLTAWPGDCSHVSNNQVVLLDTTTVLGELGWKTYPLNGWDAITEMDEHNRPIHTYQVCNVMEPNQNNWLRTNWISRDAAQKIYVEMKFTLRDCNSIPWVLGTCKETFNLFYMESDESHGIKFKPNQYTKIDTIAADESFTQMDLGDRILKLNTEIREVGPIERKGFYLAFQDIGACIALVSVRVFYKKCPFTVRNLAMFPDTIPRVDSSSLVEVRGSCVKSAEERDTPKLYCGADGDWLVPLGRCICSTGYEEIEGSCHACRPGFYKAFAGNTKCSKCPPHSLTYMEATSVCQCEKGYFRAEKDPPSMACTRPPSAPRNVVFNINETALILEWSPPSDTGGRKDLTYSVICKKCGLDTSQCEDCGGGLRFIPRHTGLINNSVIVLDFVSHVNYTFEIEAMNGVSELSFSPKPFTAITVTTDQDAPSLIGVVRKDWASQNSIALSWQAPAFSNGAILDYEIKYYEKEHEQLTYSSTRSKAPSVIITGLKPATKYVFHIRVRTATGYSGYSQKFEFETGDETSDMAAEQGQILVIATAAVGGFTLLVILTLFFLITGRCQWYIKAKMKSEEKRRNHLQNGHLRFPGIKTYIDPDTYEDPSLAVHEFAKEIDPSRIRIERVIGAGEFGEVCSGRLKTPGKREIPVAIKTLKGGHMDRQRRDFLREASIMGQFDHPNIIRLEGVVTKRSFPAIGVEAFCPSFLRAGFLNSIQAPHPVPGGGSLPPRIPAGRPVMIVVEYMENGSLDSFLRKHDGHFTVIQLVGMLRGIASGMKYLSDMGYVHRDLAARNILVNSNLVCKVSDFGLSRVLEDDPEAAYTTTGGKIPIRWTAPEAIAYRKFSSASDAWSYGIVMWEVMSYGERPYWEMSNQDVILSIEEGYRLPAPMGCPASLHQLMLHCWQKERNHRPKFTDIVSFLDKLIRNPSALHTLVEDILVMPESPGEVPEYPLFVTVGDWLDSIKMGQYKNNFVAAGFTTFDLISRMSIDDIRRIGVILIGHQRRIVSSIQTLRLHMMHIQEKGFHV
# [13] = biological target: FGFR1 (human) (UniProt P11362)
# [14] = biological target: HCK (human) (UniProt P08631)
# [15] = biological target: JAK3 JH1 catalytic (human) (UniProt P52333)
# [16] = test system: KIT (human), P10721 [A829P]
# [17] = biological target: MAP3K10 (human) (UniProt Q02779)
# Sequence of MAP3K10 (human) (Q02779 whole entry, looked up): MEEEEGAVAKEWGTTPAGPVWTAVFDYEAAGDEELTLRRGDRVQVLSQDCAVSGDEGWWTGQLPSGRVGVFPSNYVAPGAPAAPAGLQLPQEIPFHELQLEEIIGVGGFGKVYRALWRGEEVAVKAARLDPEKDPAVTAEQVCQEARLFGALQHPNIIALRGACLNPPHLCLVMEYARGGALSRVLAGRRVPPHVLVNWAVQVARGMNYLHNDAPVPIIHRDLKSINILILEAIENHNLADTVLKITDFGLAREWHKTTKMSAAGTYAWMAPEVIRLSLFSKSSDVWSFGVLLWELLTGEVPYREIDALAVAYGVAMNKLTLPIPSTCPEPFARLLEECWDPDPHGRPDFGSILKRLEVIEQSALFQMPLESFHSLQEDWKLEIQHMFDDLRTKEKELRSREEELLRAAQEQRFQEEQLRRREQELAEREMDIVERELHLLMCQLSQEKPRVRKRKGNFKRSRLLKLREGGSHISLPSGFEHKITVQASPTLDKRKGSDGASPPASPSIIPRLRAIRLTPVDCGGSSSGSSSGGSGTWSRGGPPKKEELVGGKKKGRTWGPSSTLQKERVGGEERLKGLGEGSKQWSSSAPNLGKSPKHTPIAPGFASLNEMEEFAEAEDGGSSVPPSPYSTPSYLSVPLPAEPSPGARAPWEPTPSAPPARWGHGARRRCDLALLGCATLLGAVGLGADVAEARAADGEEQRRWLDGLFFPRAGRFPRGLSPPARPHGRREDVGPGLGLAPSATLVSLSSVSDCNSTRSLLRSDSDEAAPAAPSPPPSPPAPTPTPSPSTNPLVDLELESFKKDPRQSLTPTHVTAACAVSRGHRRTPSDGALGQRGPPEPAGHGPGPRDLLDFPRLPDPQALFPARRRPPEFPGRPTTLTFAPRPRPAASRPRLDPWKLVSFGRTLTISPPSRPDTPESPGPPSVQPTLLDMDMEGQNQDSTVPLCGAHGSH
# [18] = biological target: MAP3K7 (human) (UniProt O43318)
# [19] = biological target: MAPK7 (human) (UniProt Q13164)
# Sequence of MAPK7 (human) (Q13164 whole entry, looked up): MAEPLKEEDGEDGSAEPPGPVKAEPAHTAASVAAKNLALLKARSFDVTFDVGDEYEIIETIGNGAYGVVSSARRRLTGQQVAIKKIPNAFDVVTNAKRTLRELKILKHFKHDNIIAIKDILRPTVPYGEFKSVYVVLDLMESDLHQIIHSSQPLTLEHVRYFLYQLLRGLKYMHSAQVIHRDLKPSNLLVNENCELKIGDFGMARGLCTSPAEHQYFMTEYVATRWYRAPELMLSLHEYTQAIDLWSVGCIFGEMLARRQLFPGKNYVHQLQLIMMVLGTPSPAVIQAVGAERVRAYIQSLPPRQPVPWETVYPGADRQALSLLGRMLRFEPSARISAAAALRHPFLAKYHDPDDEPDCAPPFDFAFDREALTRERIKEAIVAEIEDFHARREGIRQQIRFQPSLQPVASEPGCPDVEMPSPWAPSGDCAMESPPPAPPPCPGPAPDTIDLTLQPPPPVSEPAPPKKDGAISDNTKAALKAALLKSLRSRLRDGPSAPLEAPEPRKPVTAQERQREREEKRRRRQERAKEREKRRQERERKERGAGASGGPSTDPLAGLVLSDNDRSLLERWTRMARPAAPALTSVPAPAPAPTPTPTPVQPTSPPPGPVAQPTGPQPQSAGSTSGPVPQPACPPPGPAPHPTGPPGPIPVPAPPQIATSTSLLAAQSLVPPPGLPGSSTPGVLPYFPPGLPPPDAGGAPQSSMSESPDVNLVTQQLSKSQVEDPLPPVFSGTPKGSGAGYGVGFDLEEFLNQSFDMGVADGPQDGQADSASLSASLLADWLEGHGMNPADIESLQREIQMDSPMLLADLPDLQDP
# [20] = test system: MET (human), P08581 [M1250T]
# [21] = biological target: PAK2 (human) (UniProt Q13177)
# [22] = biological target: PIK3C2G (human) (UniProt O75747)
# [23] = test system: PIK3CA (human), P42336 [E545K]
# [24] = biological target: PIM2 (human) (UniProt Q9P1W9)
# [25] = biological target: PIP4K2B (human) (UniProt P78356)
# [26] = biological target: PIP5K1C (human) (UniProt O60331)
# [27] = biological target: PKN3 (M.tuberculosis) (UniProt Q6P5Z2)
# [28] = biological target: PRKD1 (human) (UniProt Q15139)
# Sequence of PRKD1 (human) (Q15139 whole entry, looked up): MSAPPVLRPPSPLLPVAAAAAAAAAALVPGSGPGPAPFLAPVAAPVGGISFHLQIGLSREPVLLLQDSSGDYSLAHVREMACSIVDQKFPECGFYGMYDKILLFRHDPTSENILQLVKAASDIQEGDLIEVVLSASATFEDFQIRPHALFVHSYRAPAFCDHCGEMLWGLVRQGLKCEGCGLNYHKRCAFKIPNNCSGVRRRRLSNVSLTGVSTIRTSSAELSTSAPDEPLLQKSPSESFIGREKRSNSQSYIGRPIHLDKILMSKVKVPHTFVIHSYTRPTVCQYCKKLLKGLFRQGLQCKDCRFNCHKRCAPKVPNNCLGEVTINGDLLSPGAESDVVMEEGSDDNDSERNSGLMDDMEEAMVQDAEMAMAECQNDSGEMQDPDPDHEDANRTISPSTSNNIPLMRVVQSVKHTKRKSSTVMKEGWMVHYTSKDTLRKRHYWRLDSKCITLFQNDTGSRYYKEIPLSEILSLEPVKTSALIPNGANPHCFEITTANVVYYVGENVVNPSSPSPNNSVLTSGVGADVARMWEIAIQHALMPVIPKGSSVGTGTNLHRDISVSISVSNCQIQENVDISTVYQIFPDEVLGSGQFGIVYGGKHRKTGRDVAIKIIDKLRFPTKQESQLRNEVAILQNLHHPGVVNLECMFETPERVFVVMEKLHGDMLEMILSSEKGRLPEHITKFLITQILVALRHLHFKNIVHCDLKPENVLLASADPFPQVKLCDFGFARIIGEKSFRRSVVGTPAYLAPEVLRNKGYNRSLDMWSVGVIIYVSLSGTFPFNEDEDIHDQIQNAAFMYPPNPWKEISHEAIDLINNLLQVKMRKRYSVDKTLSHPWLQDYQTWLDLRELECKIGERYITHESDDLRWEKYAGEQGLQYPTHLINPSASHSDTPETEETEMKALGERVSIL
# [29] = biological target: PTK2B (human) (UniProt Q14289)
# [30] = biological target: RPS6KA1 KD1 (human) (UniProt Q15418)
# [31] = biological target: RPS6KA6 KD2 (human) (UniProt Q9UK32)
# [32] = biological target: SNRK (human) (UniProt Q9NRH2)
# [33] = biological target: SRMS (human) (UniProt Q9H3Y6)
# [34] = biological target: STK10 (human) (UniProt O94804)
# [35] = biological target: STK16 (human) (UniProt O75716)
# [36] = biological target: STK32C (human) (UniProt Q86UX6)
# [37] = biological target: STK35 (human) (UniProt Q8TDR2)
# [38] = biological target: STK39 (human) (UniProt Q9UEW8)
# [39] = biological target: TYK2 JH1 catalytic (human) (UniProt P29597)
# Sequence of TYK2 JH1 catalytic (human) (P29597 whole entry, looked up): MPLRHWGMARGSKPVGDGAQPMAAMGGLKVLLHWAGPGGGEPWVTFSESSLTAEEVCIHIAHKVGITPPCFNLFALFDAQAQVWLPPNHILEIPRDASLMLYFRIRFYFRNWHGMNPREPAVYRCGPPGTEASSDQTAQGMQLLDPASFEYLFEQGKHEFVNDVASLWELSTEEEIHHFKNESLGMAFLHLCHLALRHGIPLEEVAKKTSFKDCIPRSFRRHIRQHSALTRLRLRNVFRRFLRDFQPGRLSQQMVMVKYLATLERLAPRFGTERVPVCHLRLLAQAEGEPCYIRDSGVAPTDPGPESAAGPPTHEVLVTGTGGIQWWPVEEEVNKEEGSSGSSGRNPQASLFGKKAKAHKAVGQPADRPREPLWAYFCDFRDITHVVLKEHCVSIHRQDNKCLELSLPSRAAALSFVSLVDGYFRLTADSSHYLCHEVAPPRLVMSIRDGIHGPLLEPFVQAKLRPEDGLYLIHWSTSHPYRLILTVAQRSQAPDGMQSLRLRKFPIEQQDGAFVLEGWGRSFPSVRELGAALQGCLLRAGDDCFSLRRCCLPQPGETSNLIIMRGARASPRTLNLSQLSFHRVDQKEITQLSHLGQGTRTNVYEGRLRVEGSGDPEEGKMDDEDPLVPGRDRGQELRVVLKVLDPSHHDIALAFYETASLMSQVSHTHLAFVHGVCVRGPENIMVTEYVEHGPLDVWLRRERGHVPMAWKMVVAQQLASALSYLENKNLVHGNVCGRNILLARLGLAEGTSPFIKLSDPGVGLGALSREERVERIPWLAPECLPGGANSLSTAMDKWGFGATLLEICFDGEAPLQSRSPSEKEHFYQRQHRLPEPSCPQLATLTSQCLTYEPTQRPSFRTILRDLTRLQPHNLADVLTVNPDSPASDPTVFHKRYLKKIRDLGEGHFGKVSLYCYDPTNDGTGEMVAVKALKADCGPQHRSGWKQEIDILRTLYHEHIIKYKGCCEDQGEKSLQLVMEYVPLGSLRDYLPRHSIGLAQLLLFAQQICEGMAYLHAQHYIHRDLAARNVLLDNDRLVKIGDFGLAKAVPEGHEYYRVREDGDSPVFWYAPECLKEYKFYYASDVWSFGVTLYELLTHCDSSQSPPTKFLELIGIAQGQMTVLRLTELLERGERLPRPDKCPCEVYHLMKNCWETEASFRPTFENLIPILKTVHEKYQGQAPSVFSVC
# [40] = biological target: TYK2 JH2 pseudokinase (human) (UniProt P29597)
# Sequence of TYK2 JH2 pseudokinase (human) (P29597 whole entry, looked up): as above
# [41] = biological target: ULK2 (human) (UniProt Q8IYT8)
structure (smiles),measurement,setting,value
COc1ccc(-c2ccc3c(N4CCOCC4)nc(N4C[C@@H](C)O[C@@H](C)C4)nc3n2)cc1CO,"kinase still bound, per cent of control",[1],97%
same,"kinase still bound, per cent of control",[2],98%
same,"kinase still bound, per cent of control",[3],100%
same,per cent of control,[4],100%
same,"kinase still bound, per cent of control",[5],87%
same,"kinase still bound, per cent of control",[6],98%
same,"kinase still bound, per cent of control",[7],100%
same,"kinase still bound, per cent of control",[8],85%
same,"kinase still bound, per cent of control",[9],100%
same,"kinase still bound, per cent of control",[10],85%
same,"kinase still bound, per cent of control",[11],100%
same,"kinase still bound, per cent of control",[12],100%
same,"kinase still bound, per cent of control",[13],100%
same,"kinase still bound, per cent of control",[14],100%
same,"kinase still bound, per cent of control",[15],100%
same,"kinase still bound, per cent of control",[16],100%
same,"kinase still bound, per cent of control",[17],98%
same,"kinase still bound, per cent of control",[18],99%
same,"kinase still bound, per cent of control",[19],100%
same,"kinase still bound, per cent of control",[20],100%
same,"kinase still bound, per cent of control",[21],91%
same,"kinase still bound, per cent of control",[22],43%
same,"kinase still bound, per cent of control",[23],2%
same,"kinase still bound, per cent of control",[24],100%
same,"kinase still bound, per cent of control",[25],100%
same,"kinase still bound, per cent of control",[26],100%
same,"kinase still bound, per cent of control",[27],100%
same,"kinase still bound, per cent of control",[28],91%
same,"kinase still bound, per cent of control",[29],84%
same,"kinase still bound, per cent of control",[30],70%
same,"kinase still bound, per cent of control",[31],93%
same,"kinase still bound, per cent of control",[32],48%
same,"kinase still bound, per cent of control",[33],98%
same,"kinase still bound, per cent of control",[34],92%
same,"kinase still bound, per cent of control",[35],93%
same,"kinase still bound, per cent of control",[36],87%
same,"kinase still bound, per cent of control",[37],96%
same,per cent of control,[38],100%
same,"kinase still bound, per cent of control",[39],100%
same,"kinase still bound, per cent of control",[40],86%
same,"kinase still bound, per cent of control",[41],100%
